Assay results as given in patent publication US20200129434A1, “LIPOSOME COMPOSITIONS AND USES THEREOF” (TECHNION RESEARCH & DEVELOPMENT FOUNDATION LIMITED, priority 2017, published 2020).

Assays:
U87 glioblastoma cells [1] = assay: Survival studies in U87 transferred mice; format: in vivo, SCID immuno-deficient mice
Text: (§1) In order to assess the efficacy of the liposome composition in delivering a therapeutic agent to the brain, glioblastoma in a mouse model was employed. Curcumin was integrated into liposomes comprising cholesterol: phosphatidyl phosphoric acid: phosphatidyl choline in molar ratios of 35:7:58. The targeting peptide was present at 0.5% by molar ratio, mol % or weight %, and the curcumin was at a final concentration of 1% by molar ratio, mol % or weight %. The resulting liposomes where lyophilized, hydrated and downsized into a diameter of 0.1 μm±20%.
(§2) These liposomes comprised cholesterol: phosphatidyl phosphoric acid: phosphatidyl choline in molar ratios of 40:5:55. The molar concentration of the drug and targeting peptide were unchanged.
(§3) As a model of glioblastoma, SCID immuno-deficient mice were implanted with U87 glioblastoma cells. The U87 cells had previously been transfected with a luciferase gene, such that upon intraperitoneally injection of the mice with luciferin, the cells would fluoresce, allowing for accurate quantification and imaging of the tumor using the IVIS 200 imaging system. The degree of fluorescence measured was proportional to the number of cancer cells, and therefore indicated the cancer growth.
Curcumin and TMZ in targeted liposome carriers, were administered intraperitoneally to the mice 3 days after injection of the tumor cells and for at least 3 weeks. […]

U87 glioblastoma cells [2] = assay: Tumor growth in the mouse model of glioblastoma, luciferase imaging with IVIS 200; format: in vivo, SCID immuno-deficient mice; details: 4 mg/kg daily intraperitoneally, FIG. 3A
Text: as §1, §2
as §3, with “growth. […]” for “growth.”
By using the luciferase imaging system, quantification of the relative tumor size was possible (FIG. 3). […]

[3] = Evaluation of liposome compositions for delivery of curcumin (solubility, drug stability, half-life); format: physicochemical; details: curcumin loaded in the cholesterol/PA/PC liposome formulation
Text: To test various liposome compositions, the water insoluble drug curcumin was employed as the therapeutic agent to be incorporated into the liposome. Curcumin, has been used for many clinical purposes, including as an antioxidant, antibacterial, anti-inflammatory agent, anti-neurodegenerative processes and anticancer agent. Curcumin however, is highly water-insoluble, has a very short biological half-life, and poor pharmacokinetics. Previous attempts at liposomes for the delivery of curcumin comprised cholesterol (Ch), 1,2-dioleyl-sn-glycero-3-phosphocholine (DOPC), 1,2-dioleyl-sn-glycero-3-phosphoethanolamine (DOPE), and 1,2-dioleoyl-sn-glycero-3-[phosphor-L-serine] (DOPS), usually in equimolar amounts.
Various compositions of liposomes for delivery of curcumin were tested and evaluated for drug loading, drug stability and half-life, and effective targeting in the body. […] The targeting peptide was dissolved in chloroform/methanol and added to the mixture at 0.1-2% by molar ratio, mol % or weight %.
Loading of the drug into the liposome was achieved by pre-dissolving the target drug during the preparation of the liposome, thereby enabling a desired and reproducible concentration of the drug in the most stabilized environment.

Compound | survival time of all mice after tumor cell transfer (U87 glioblastoma cells [1]; daily dosing 4 mg/kg, FIG. 4) | latency period before tumor growth (U87 glioblastoma cells [2]) | survival compared with control (in words) (U87 glioblastoma cells [1]; 4 mg drug/kg mouse daily) | degradation and biological half-life of the drug [3]
Cn1nnc2c(C(N)=O)ncn2c1=O [free TMZ, Temozolomide] | ≤ 30 days | 2 weeks |  | 
COc1cc(/C=C/C(=O)CC(=O)/C=C/c2ccc(O)c(OC)c2)ccc1O [free curcumin, curcumin] |  |  | survival was not significantly extended | protect the drug from degradation and prolong its biological half-life
